Source: patent publication US7446091B2, “Methods and preparations for curing clinically ill patients” (Novo Nordisk A/S, priority 2000, dated 2008)
Several values for one entry are separate records, joined by “and”; a condition that tells them apart may be missing. Equal entries are not always repeated.

How the values were obtained:
[1] = tested on: mechanically ventilated, adult patients admitted to the intensive care unit (ICU); test: Example 2: prospective, randomized, controlled study, mortality analysis; format: in vivo, human
Excerpt: All mechanically ventilated, adult patients admitted to the intensive care unit (ICU) were eligible for inclusion.
All mechanically ventilated, adult (age>18y) patients admitted to our 56-bed, mainly surgical, ICU from Feb. 2, 2000 onward were considered eligible for inclusion. […] Informed consent was obtained from the closest family member. The study protocol was approved by the Institutional Review Board of the Catholic University of Leuven School of Medicine.
Consecutive patients were randomly assigned to one of these two treatment groups using blinded envelopes, stratified according to type of critical illness diagnosed on admission [(a) neurological disease, cerebral trauma or surgery; (b) cardiac surgery; (c) thoracic surgery and/or respiratory insufficiency; (d) abdominal surgery/peritonitis; (e) vascular surgery; (f) multiple trauma or severe burns: (g) organ transplantation; (h) others, mainly extensive oncological procedures] and balanced with the use of permuted blocks of ten.
All patients were fed continuously, on admission with mainly intravenous glucose (200-300 g/24 h) and from the next day onward with a standardised feeding schedule aiming for a caloric content up to 20-30 non-protein Calories/kg/24 h and a balanced composition (0.13-0.26 g nitrogen/kg/24 h and 20%-40% of non-protein Calories as lipids) of either total parenteral, combined parenteral/enteral or full enteral feeding, the latter mode attempted as early as possible. Other comcomitant ICU therapy was left to the discretion of attending physicians.
In patients treated in ICU for more than one week, a weekly electromyography (EMG) was performed to screen for Critical Illness Polyneuropathy. EMGs were interpreted by the same electrophysiologist who was blinded for randomization. In case of ICU death, a post-mortem examination was performed to confirm the presumed cause of death.
The primary outcome measure was death from all causes during intensive care. Secondary outcome measures were in-hospital mortality, incidence of prolonged intensive care dependency and need for ICU re-admission, need for vital organ system support comprising mechanical ventilatory support, renal replacement therapy (continuous or intermittent hemofiltration or dialysis), inotropic or vasopressor support, incidence of critical illness polyneuropathy, the degree of inflammation, incidence of blood stream infections and use of antibiotics, transfusion requirements and incidence of hyperbilirubinemia. Furthermore, use of intensive care resources was analysed by cumulative TISS scores. In order to accurately and objectively assess duration of ICU stay, which is often influenced by non-patient related factors such as bed availability on regular wards, patients were defined ‘dischargable from ICU’ when they were no longer in need of vital organ system support and received at least ⅔rd of the caloric need through the normal enteral route or earlier when actually sent to a ward.
We hypothesized to detect a difference in mortality selectively in long-stay (>5 days) critically ill patients. Since prolonged ICU stay is not predictable at ICU admission, and since we aimed at treatment from admission onward, we chose to include all mechanically ventilated patients admitted to the ICU, without selection. We estimated that inclusion of 2500 admissions would be needed to rule out an absolute difference in mortality of ±5% in the long-stay cohort which would translate in an absolute risk reduction of ±2% for overall ICU mortality (2-sided alfa level of <0.05). […] All analyses were done on intention to treat basis.
Baseline and outcome variables were compared using Student's t-test, Chi-square test and Mann-Whitney-U test, as appropriate. Death odds ratios were calculated using multivariate logistic regression analysis.

[2] = tested on: mechanically ventilated, adult patients admitted to the intensive care unit (ICU); test: Example 2: glycemia control (whole blood glucose); format: in vivo
Method: A blood sample was taken upon ICU admission and daily at 06:00 h until discharge from ICU or death. On-admission and daily morning, whole blood glucose level as well as daily maximal and minimal glycemia were analysed. Analyses on the 06:00 h sample also included clinical chemistry, hematology and markers of inflammation.

Substance: insulin
- Causes of death during intensive care - total no: cardiogenic shock ([1]; IIS): 10
- Causes of death during intensive care - total no: multiple organ failure with proven septic focus ([1]; IIS): 8
- Causes of death during intensive care - total no: multiple organ failure, no detectable septic focus ([1]; IIS): 14
- Causes of death during intensive care - total no: severe brain damage ([1]; IIS): 3
- ICU deaths among patients staying >5 days (%) ([1]; IIS): (10.6%)
- ICU deaths among patients staying >5 days - total no. ([1]; IIS): 22
- ICU deaths among patients staying ≤5 days (%) ([1]; IIS): (2.3%)
- ICU deaths among patients staying ≤5 days - total no. ([1]; IIS): 13
- ICU deaths, abdominal surgery/peritonitis (%) ([1]; IIS): (13.3%)
- ICU deaths, abdominal surgery/peritonitis - total no ([1]; IIS): 6
- ICU deaths, cardiac surgery (%) ([1]; IIS): (2%)
- ICU deaths, cardiac surgery - total no. ([1]; IIS): 10
- ICU deaths, multiple trauma or severe burns (%) ([1]; IIS): (12.1%)
- ICU deaths, multiple trauma or severe burns - total no. ([1]; IIS): 4
- ICU deaths, neurological disease, cerebral trauma or surgery (%) ([1]; IIS): (18.1%)
- ICU deaths, neurological disease, cerebral trauma or surgery - total no. ([1]; IIS): 6
- ICU deaths, other types of critical illness (%) ([1]; IIS): (8.7%)
- ICU deaths, other types of critical illness - total no ([1]; IIS): 25
- ICU deaths, others (%) ([1]; IIS): (0%)
- ICU deaths, others - total no ([1]; IIS): 0
- ICU deaths, thoracic surgery and/or respiratory insufficiency - total no. ([1]; IIS): 5
- ICU deaths, transplantation (%) ([1]; IIS): (4.3%)
- ICU deaths, transplantation - total no ([1]; IIS): 2
- ICU deaths, vascular surgery (%) ([1]; IIS): (6.6%)
- ICU deaths, vascular surgery - total no. ([1]; IIS): 2
- In-hospital deaths among patients staying >5 days in ICU (%) ([1]; IIS): (16.8%)
- In-hospital deaths among patients staying >5 days in ICU - total no. ([1]; IIS): 35
- In-hospital deaths among patients staying ≤5 days in ICU (%) ([1]; IIS): (3.6%)
- In-hospital deaths among patients staying ≤5 days in ICU - total no. ([1]; IIS): 20
- Mortality in bacteremic patients ([1]; IIS): 12.5%
- ICU deaths among patients staying >5 days, NNT ([1]; IIS vs RIS): 11
- ICU deaths among patients staying >5 days, RRR (%) ([1]; IIS vs RIS): 47%
- ICU deaths among patients staying ≤5 days, RRR (%) ([1]; IIS vs RIS): =
- ICU deaths, NNT to save one life ([1]; IIS vs RIS): 29
- ICU deaths, RRR (%) ([1]; IIS vs RIS): 43%
- In-hospital deaths among patients staying >5 days in ICU, NNT ([1]; IIS vs RIS): 11
- In-hospital deaths among patients staying >5 days in ICU, RRR (%) ([1]; IIS vs RIS): 36%
- In-hospital deaths among patients staying ≤5 days in ICU, RRR (%) ([1]; IIS vs RIS): =
- In-hospital deaths, NNT ([1]; IIS vs RIS): 27
- In-hospital deaths, RRR (%) ([1]; IIS vs RIS): 34%
- ICU mortality, absolute risk reduction in the prolonged critically ill cohort ([1]; IIS vs RIS, ICU stay >5 days): 9.6%
- ICU deaths - total no. ([1]; IIS, N = 765): 35
- In-hospital deaths - total no. ([1]; IIS, N = 765): 55
- Causes of death during intensive care - total no: cardiogenic shock ([1]; RIS): 7
- Causes of death during intensive care - total no: multiple organ failure with proven septic focus ([1]; RIS): 33
- Causes of death during intensive care - total no: multiple organ failure, no detectable septic focus ([1]; RIS): 18
- Causes of death during intensive care - total no: severe brain damage ([1]; RIS): 5
- ICU deaths among patients staying >5 days (%) ([1]; RIS): (20.2%)
- ICU deaths among patients staying >5 days - total no. ([1]; RIS): 49
- ICU deaths among patients staying ≤5 days (%) ([1]; RIS): (2.6%)
- ICU deaths among patients staying ≤5 days - total no. ([1]; RIS): 14
- ICU deaths, abdominal surgery/peritonitis (%) ([1]; RIS): (15.5%)
- ICU deaths, abdominal surgery/peritonitis - total no ([1]; RIS): 9
- ICU deaths, cardiac surgery (%) ([1]; RIS): (5%)
- ICU deaths, cardiac surgery - total no. ([1]; RIS): 25
- ICU deaths, multiple trauma or severe burns (%) ([1]; RIS): (8.6%)
- ICU deaths, multiple trauma or severe burns - total no. ([1]; RIS): 3
- ICU deaths, neurological disease, cerebral trauma or surgery (%) ([1]; RIS): (23.3%)
- ICU deaths, neurological disease, cerebral trauma or surgery - total no. ([1]; RIS): 7
- ICU deaths, other types of critical illness (%) ([1]; RIS): (13.1%)
- ICU deaths, other types of critical illness - total no ([1]; RIS): 38
- ICU deaths, others (%) ([1]; RIS): (17.1%)
- ICU deaths, others - total no ([1]; RIS): 6
- ICU deaths, thoracic surgery and/or respiratory insufficiency (%) ([1]; RIS): (17.9%)
- ICU deaths, thoracic surgery and/or respiratory insufficiency - total no. ([1]; RIS): 10
- ICU deaths, transplantation (%) ([1]; RIS): (2.3%)
- ICU deaths, transplantation - total no ([1]; RIS): 1
- ICU deaths, vascular surgery (%) ([1]; RIS): (6.3%)
- ICU deaths, vascular surgery - total no. ([1]; RIS): 2
- In-hospital deaths among patients staying >5 days in ICU (%) ([1]; RIS): (26.3%)
- In-hospital deaths among patients staying >5 days in ICU - total no. ([1]; RIS): 64
- In-hospital deaths among patients staying ≤5 days in ICU (%) ([1]; RIS): (3.9%)
- In-hospital deaths among patients staying ≤5 days in ICU - total no. ([1]; RIS): 21
- Mortality in bacteremic patients ([1]; RIS): 29.5%
- ICU deaths - total no. ([1]; RIS, N = 783): 63
- In-hospital deaths - total no. ([1]; RIS, N = 783): 85
- ICU mortality among the RIS patients actually receiving insulin ([1]; RIS, insulin-receiving patients): 12.4%
- Mean 06:00 h blood glucose level when on insulin (mmol/L) (mean ± SD) ([2]; IIS): 5.7 ± 1.0 mmol/L
- Patients who never exceeded 6.1 mmol/L after treatment initiation ([2]; IIS): 48%
- Patients who occasionally peaked over 8.4 mmol/L ([2]; IIS): 17%
- Patients with blood glucose levels that failed to go below 6.1 mmol/L within 48 h ([2]; IIS): 0.1%
- Consequences of hypoglycemia events ([2]; IIS and RIS): never induced serious symptoms such as hemodynamic deterioration or epilepsia
- Mean 06:00 h blood glucose level (mmol/L) (mean ± SD) ([2]; IIS, N = 765): 5.8 ± 1.0 mmol/L and 5.7 ± 1.0 mmol/L
- Mean 06:00 h blood glucose level when on insulin (mmol/L) (mean ± SD) ([2]; RIS): 9.6 ± 1.8 mmol/L
- Patients in whom glycemia transiently fell below 2.3 mmol/L, number ([2]; RIS): 6
- Mean 06:00 h blood glucose level (mmol/L) (mean ± SD) ([2]; RIS, N = 783): 8.5 ± 1.8 mmol/L
